Assays:
Zip11 [1] = experiment: Zip11 mRNA expression in human cells treated with vitamins; format: cell-based; settings: Human HEK293 and HT1080 cells, treated 24 hours; vitamin B3 10, 50, 100 μM; vitamin B12 1, 10, 50 μM; vitamin C 10, 100, 500 μM
Protocol: Human HEK293 and HT1080 cells were treated for 24 hours respectively at different concentrations of vitamin B3 (10 μM, 50 μM, 100 μM), vitamin B12 (1 μM, 10 μM, 50 μM) and vitamin C (10 μM, 100 μM, 500 μM). The relative expression quantity of Zip11 mRNA was detected.

ZIP11 [2] = experiment: ZIP11 expression in liver of wild-type mice injected with concanavalin A (RT-PCR); format: in vivo, mouse; settings: wild-type C57BL/6 mice, 10 mg/kg through the tail vein, after 18 hours
Protocol: The wild-type C57BL/6 mice were divided into two groups. An experimental group was injected with 10 mg/kg concanavalin (ConA) through the tail vein.

Row | Compound | relative expression quantity of Zip11 mRNA (Zip11 [1]) | expression level of ZIP11 in liver tissue (RT-PCR, β-actin as reference) (ZIP11 [2])
1 | O=C(O)c1cccnc1 [vitamin B3] | increase the expression level of Zip11 | 
2 | O=C1O[C@H]([C@@H](O)CO)C(O)=C1O [vitamin C] | increase the expression level of Zip11 | 
3 | Concanavalin A [ConA] |  | decrease the level of ZIP11
4 | vitamin B12 | increase the expression level of Zip11 | 

— patent US20240043927A1, “METHOD FOR IDENTIFYING SUBSTANCE CAPABLE OF AFFECTING AGING” (ZHEJIANG BAISHOUKANGDI CO., LTD., priority 2019, published 2024)
